Laboratory results from patent US5670520A, “Method for inhibiting virus replication in mammalian cells using carbostyil derivatives” (Otsuka Pharmaceutical Co., Ltd., priority 1996, dated 1997).

Key:
[1] = system: human T cells; assay: [3H]thymidine incorporation by PHA-stimulated human T cells; format: cell-based; conditions: 10 μg/ml PHA 48 hrs; 15 nM aphidicolin or 100 μM deferoxamine (FIG. 1B)
Description: More specifically, human primary T cells were separated from peripheral blood obtained by leukopheresis of healthy donors. Mononuclear cell suspensions were prepared by Ficoll-Hypaque gradient centrifugation, and T cells were obtained by E-rosette enrichment as described by Kumagai et al, J. Cell. Physiol., 137:329 (1988).
Then, 1.0 μCi of [^3 H]thymidine (6.7 Ci/mmole, ICN), was added to 2.0×10^6 cells (100 μl), and the cells were pulse-labeled for 6 hrs.

[2] = system: nucleoside and nucleobase transport in human T cells; assay: [3H]nucleoside / [3H]nucleobase transport, 1 min pulse, T cells; format: cell-based; conditions: 250 μM vesnarinone, 100 μM deferoxamine, 15 nM aphidicolin or 1.0 μM dipyridamole
[3] = system: human T cells; assay: 30 min [3H]thymidine, [3H]uridine and [3H]amino acid incorporation; format: cell-based; conditions: 30 min label; 250 μM vesnarinone, 15 nM aphidicolin or 100 μM deferoxamine
Description: Next, the PHA-stimulated T cells were labelled for 30 min with 5.0 μCi/ml of an [^3 H]amino acid mixture (1.0 mCi/ml, Amersham, Arlington Heights, Ill.), washed twice with ice-cold PBS, and then lysed in PBS containing 1.0% (w/v) SDS, followed by addition of a mixture of 7.0% (w/v) trichloroacetic acid and 1.0% (w/v) pyrophosphate. The precipitates were loaded on GF/A filters, and washed extensively with a mixture of 7.0% (w/v) trichloroacetic acid and 1.0% (w/v) pyrophosphate. Radioactivity was measured by scintillation counting.

[4] = system: human T cells; assay: Cell numbers of PHA-stimulated human T cells over 120 hrs; format: cell-based; conditions: 10 μg/ml PHA, 0-120 hrs; 250 μM vesnarinone, 15 nM aphidicolin or 100 μM deferoxamine
Description: Next, the effects of the above-described drugs on cell proliferation were evaluated over a period of 120 hrs.

[5] = system: EBV; assay: In situ hybridization of EBV DNA in anti-IgG stimulated DMSO-released Akata cells; format: cell-based, Epstein-Barr virus; conditions: 20 hrs after 50 μg/ml anti-IgG; vesnarinone 0-100 μg/ml; acyclovir pretreatment
Description: The human Burkitt's lymphoma cell line, Akata, provided by Dr. Kenzo Takada (Takada, Int. J. Cancer, 33:27-32 (1984); and Takada et al, Virus Genes, 5:147-156 (1991)), was cultured at 37° C. in RPMI 1640 medium supplemented with 15% (v/v) heat-inactivated FCS, and 20 μg/ml gentamicin.
The cell progression of Akata cells was arrested by culturing of the cells for 96 hrs in the presence of 1.5% (y/v) DMSO (Sigma, St. Louis, Mo.) (Sawai et al, Exp. Cell Res., 187:4-10 (1990); and Takase et al, Cell Growth Differ., 3:515-521 (1992)).
1 hr after transfer (release from DMSO), a goat F(ab')2 fragment of anti-human IgG antibody (Organon Teknika, Durham, N.C.) was added at a concentration of 50 μg/ml to induce productive EBV replication (Takagi et al, Virology, 185:309-315 (1991)).
3 hrs and 20 hrs after treatment with the anti-IgG, the cells were harvested for flow cytometric detection of the BamHI Z replication activator (ZEBRA), and for in situ detection of EBV DNA, respectively. […]
More specifically, cells coated on a glass slide were fixed in acetone at room temperature for 10 min. […] Positivity for EBV DNA was determined by the presence of red-colored grains and at least 1000 cells were examined under light microscopy. […]

[6] = system: HIV-1 strain 18a (AZT-sensitive); assay: microbe, parasite or virus in culture; conditions: Human immunodeficiency virus 1, PBMC, 120 h, read-out: IC50, p24 production
Description: (§1) More specifically, PBMC were incubated for 48 hr with 3.0 μg/ml of PHA and 10 U/ml of IL-2. Then, 10-100 TCID50 virus/ml of clinical isolate strains of HIV-1, 18a (AZT-sensitive) or 18c (AZT-resistant), were added. […] After 5 days of infection, the supernatant was collected and HIV-1 p24 antigen was measured using the p24 ELISA kit (NEN Dupont).
(§2) The combination index (CI) was calculated using multiple drug effect analysis of Chou and Tala, as described by Johnson et al, J. Infect. Dis., 159:837-844 (1989). CI values of <1, =1, and >1, indicate synergism, additive effects, and antagonism, respectively.

[7] = system: HIV-1 strain 18c (AZT-resistant); assay: HIV-1 p24 antigen production by infected PBMC, strain 18c; format: cell-based; conditions: Human immunodeficiency virus 1, 120 h; 18c infected PBMC, 5 days, AZT alone
Description: as §1, §2

[8] = system: U937 cells; assay: Intracellular AZT-MP, AZT-DP, AZT-TP in U937 cells by HPLC; conditions: U937 cells, 5.0 μCi/ml [3H]AZT, 2 hr
Description: 1.0 ml fractions were collected, and the radioactivity was measured by liquid scintillation. The retention time for AZT and AZT-MP was confirmed using cold AZT and AZT-MP (Sigma) under the same conditions.
Intracellular concentrations of [^3 H]AZT-MP, [^3 H]AZT-DP, and [^3 H]AZT-TP were measured using HPLC as described above.

[9] = system: CMV strain AD169; assay: CMV plaque reduction assay in MRC5 cells; format: cell-based; conditions: Human betaherpesvirus 5, AD169, MRC5, 168 h; single compound assay, regression analysis; read-out: MIC50 (minimum concentration that reduces plaque production by 50%)
Description: More specifically, subconfluent monolayers of MRC5 cells (Biowhittaker, Walkersville, Md.) in 12-well tissue culture plates were exposed to a suspension of a 1:500 dilution of stock virus (CMV strain AD169; ATCC No. VR-538) in Eagles Minimal Essential Medium (MEM) supplemented with 2.0% (v/v) fetal bovine serum, for 2 hr at 37° C. to allow for virus absorption. The fluid containing unabsorbed virus was then removed, and the cell layer rinsed with Eagles MEM without serum.
The minimum compound concentration that reduces plaque production by 50% (MIC50) was calculated from single compound assays by using a regression analysis program for semilog curve fitting.
The following formula of additivity, which is appropriate for inhibitors affecting different sites, was used.

[10] = MTT cell viability of MRC5 cells; format: cell-based; conditions: human, mrc5 cells, read-out: MTT Cell Viability (% of control)
Description: More specifically, 5.0 μg/ml of MTT in Eagles MEM supplemented with 2.0% (v/v) fetal bovine serum was added to each well, and incubated at 37° C. for 6 hr. The cells were then solubilized by adding 30% (w/v) SDS in 0.02N HCl. The cultures were incubated overnight at 37° C. Then, the optical density was measured at 570 nm on a spectrophotometer.

[11] = system: U937 cells; assay: Intracellular phosphorylated AZT in U937 cells (DEAE filter); conditions: 0-250 μM vesnarinone or 0-100 nM dipyridamole; 2 hr
[12] = system: U937 cells; assay: [3H]thymidine uptake in U937 cells within 1 min; format: cell-based, human
Description: Dipyridamole was prepared as a 50 mM stock solution dissolved in ethanol.

[13] = system: CHO cells; assay: Rescue of CHO cells from cytostatic effects of 5-FUd; format: cell-based, Chinese hamster; conditions: 50 nM 5-FUd, 120 hrs; 0-250 μM vesnarinone or 1.0-10 μM dipyridamole
Excerpt: Nucleoside transport inhibitors, such as dipyridamole or NBMPR, are known to rescue cell proliferation from the cytotoxic effects of 5-fluorouridine(5-FUd) or high dose thymidine, by inhibiting transport of this cytotoxic nucleoside analog or thymidine (Aronow et al, Mol. Cell Biol., 6:2957-2962 (1986)).

[14] = system: CHO cells; assay: [3H]adenosine / [3H]adenine transport in CHO cells; conditions: 0-750 μM vesnarinone or 0-100 μM dipyridamole, 1 min pulse
[15] = in vivo; cited from earlier work
[16] = system: Raji cells; assay: [3H]adenosine / [3H]adenine transport in Raji cells; conditions: 0-750 μM vesnarinone or 0-100 μM dipyridamole, 1 min pulse

Question: With C[C@@]1(CO)[C@H](O)CC[C@@]2(C)[C@H]1CC[C@H]1C[C@@H]3C[C@@]12CC[C@]3(O)CO [aphidicolin] as the compound, how does the “[3H]thymidine incorporation” value [1] read?
Answer: The value was “also inhibited [^3 H]thymidine incorporation”.

Question: What about the “transport of [3H]thymidine, [3H]adenosine, [3H]adenine, [3H]uracil” value [2] of the same compound?
Answer: The value was “had no effect on the transport of these nucleosides or nucleobases”.

Question: And the “[3H]uridine incorporation, brief exposure” value [3]?
Answer: Its value is “did not inhibit [^2 H]uridine incorporation”.

Question: And the “cell proliferation (cell number)” value [4]?
Answer: The value was “no increases in cell number were observed”.

Question: With CC(=O)N(O)CCCCCNC(=O)CCC(=O)N(O)CCCCCNC(=O)CCC(=O)N(O)CCCCCN [deferoxamine] as the compound, how does the “[3H]thymidine incorporation” value [1] read?
Answer: The value was “also inhibited [^3 H]thymidine incorporation”.

Question: And the “transport of [3H]thymidine, [3H]adenosine, [3H]adenine, [3H]uracil” value [2]?
Answer: Its value is “had no effect on the transport of these nucleosides or nucleobases”.

Question: What about the “[3H]thymidine incorporation, brief exposure” value [3] of the same compound?
Answer: Its value is “only partially inhibited [^3 H]thymidine incorporation”.

Question: What about the “[3H]uridine incorporation, brief exposure” value [3] of the same compound?
Answer: Its value is “did not inhibit [^2 H]uridine incorporation”.

Question: What about the “cell proliferation (cell number)” value [4] of the same compound?
Answer: Its value is “no increases in cell number were observed”.

Question: With Nc1nc2c(ncn2COCCO)c(=O)[nH]1 [acyclovir, 9-[(2-hydroxyethoxy)methyl]guanine, reference compound] as the compound, how does the “population of EBV producing cells (positivity for EBV DNA)” value [5] read?
Answer: Its value is “dramatically reduced by acyclovir pretreatment”.

Question: What does the source list for Cc1cn([C@H]2C[C@H](N=[N+]=[N-])[C@@H](CO)O2)c(=O)[nH]c1=O [AZT, 3'azido-3'-deoxythymidine]?
Answer: IC50 [6]: 0.67 nM; IC50 [7]: > 640 nM; intracellular phosphorylation of AZT [8]: phosphorylated to AZT-MP, but poorly phosphorylated beyond this stage to the diphosphate form

Question: Which EC50 [9] does the source give for Nc1nc2c(ncn2COC(CO)CO)c(=O)[nH]1 [DHPG, 9-(1,3-dihydroxy-2-propoxymethyl) guanine, reference compound] here?
Answer: The EC50 was over 5000 nM.

Question: And the viability at 0.625 µM ([10]; DHPG 0.625 μM alone)?
Answer: The viability at 0.625 µM was 100%.

Question: And the viability at 1.25 µM ([10]; DHPG 1.250 μM alone)?
Answer: The viability at 1.25 µM was 100%.

Question: What about the viability at 5 µM ([10]; DHPG 5.000 μM alone) of the same compound?
Answer: The viability at 5 µM was 100%.

Question: Which results are given for OCCN(CCO)c1nc(N2CCCCC2)c2nc(N(CCO)CCO)nc(N3CCCCC3)c2n1 [dipyridamole, reference compound]?
Answer: intracellular concentration of phosphorylated AZT [11]: did not affect intracellular concentrations of phosphorylated AZT; uptake of thymidine ([12]; 0-250 μM vesnarinone or 0-1000 nM dipyridamole): inhibited the uptake of thymidine in a dose-dependent manner; IC50 ([12]; Homo sapiens, U-937, 1 min, U937 cells, within 1 min): < 10 nM; reversal of cytostatic effects of 5-FUd (cell number) [13]: significantly reversed the cytostatic effects of 5-FUd; [3H]adenosine and [3H]adenine transport [14]: inhibited adenosine transport in a selective fashion with no effect on adenine transport in its therapeutic range; transport of [3H]thymidine, [3H]adenosine, [3H]adenine, [3H]uracil [2]: suppressed nucleoside transport, but not nucleobase transport; therapeutic range [15]: 10 to 100 nM; [3H]adenosine and [3H]adenine transport [16]: inhibited adenosine transport in a selective fashion with no effect on adenine transport in its therapeutic range
